US12343326B2, “Psychoactive medicines and their use for treating psychiatric and neurological conditions and disorders” (Transcend Therapeutics, Inc., priority 2021, dated 2025)
Like-named read-outs stand apart in the source and are kept apart here.

What was measured:
Test in all cases: β-arrestin based GPCR screen (PathHunter / GPCRmax), agonist mode
Format in all cases: cell-based
Set-up in all cases: host or cells: PathHunter cell lines
[1] = molecular target: 168 GPCRs (Homo sapiens, UniProt P41143)
Sequence of 168 GPCRs (Homo sapiens, UniProt P41143) (P41143 whole entry): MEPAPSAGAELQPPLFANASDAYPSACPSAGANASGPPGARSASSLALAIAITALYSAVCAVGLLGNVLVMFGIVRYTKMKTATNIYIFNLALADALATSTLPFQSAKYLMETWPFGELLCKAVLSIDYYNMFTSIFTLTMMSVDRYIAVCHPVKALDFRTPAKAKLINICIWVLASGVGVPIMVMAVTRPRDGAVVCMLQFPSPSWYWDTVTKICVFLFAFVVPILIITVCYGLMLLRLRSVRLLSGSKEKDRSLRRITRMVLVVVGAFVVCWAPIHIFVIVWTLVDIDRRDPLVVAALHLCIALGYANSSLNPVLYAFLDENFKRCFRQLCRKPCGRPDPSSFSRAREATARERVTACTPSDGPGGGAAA
Protocol: (§1) For agonist determination, cells were incubated with sample to induce response. […] Vehicle concentration was 1%.

[2] = molecular target: 168 GPCRs (Homo sapiens, UniProt P18089); settings: ADRA2B, Agonist
Protocol: as §1

[3] = molecular target: 168 GPCRs (Homo sapiens, UniProt Q99500)
Sequence of 168 GPCRs (Homo sapiens, UniProt Q99500) (Q99500 whole entry): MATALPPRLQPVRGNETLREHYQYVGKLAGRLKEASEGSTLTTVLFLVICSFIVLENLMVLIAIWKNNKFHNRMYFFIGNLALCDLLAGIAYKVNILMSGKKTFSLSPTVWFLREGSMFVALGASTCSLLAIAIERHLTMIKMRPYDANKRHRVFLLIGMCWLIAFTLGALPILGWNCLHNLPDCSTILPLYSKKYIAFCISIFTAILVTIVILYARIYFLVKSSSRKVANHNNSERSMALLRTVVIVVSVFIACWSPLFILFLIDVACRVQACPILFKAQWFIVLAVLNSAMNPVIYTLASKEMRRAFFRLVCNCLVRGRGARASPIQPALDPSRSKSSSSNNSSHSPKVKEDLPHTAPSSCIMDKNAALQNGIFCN
Protocol: as §1

[4] = molecular target: 168 GPCRs (Homo sapiens, UniProt P25106)
Sequence of 168 GPCRs (Homo sapiens, UniProt P25106) (P25106 whole entry): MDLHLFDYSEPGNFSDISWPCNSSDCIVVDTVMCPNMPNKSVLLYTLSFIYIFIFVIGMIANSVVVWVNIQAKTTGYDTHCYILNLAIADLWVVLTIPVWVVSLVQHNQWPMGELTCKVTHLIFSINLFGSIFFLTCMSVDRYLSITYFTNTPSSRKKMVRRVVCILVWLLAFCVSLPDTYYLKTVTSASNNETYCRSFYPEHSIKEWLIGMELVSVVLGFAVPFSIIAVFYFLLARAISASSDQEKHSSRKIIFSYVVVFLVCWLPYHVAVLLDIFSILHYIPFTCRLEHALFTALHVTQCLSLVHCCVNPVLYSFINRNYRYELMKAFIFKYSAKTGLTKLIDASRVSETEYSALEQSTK
Protocol: as §1

[5] = molecular target: 168 GPCRs (Homo sapiens, UniProt Q9HBW0)
Protocol: as §1

[6] = molecular target: 168 GPCRs (Homo sapiens, UniProt P35372)
Sequence of 168 GPCRs (Homo sapiens, UniProt P35372) (P35372 whole entry): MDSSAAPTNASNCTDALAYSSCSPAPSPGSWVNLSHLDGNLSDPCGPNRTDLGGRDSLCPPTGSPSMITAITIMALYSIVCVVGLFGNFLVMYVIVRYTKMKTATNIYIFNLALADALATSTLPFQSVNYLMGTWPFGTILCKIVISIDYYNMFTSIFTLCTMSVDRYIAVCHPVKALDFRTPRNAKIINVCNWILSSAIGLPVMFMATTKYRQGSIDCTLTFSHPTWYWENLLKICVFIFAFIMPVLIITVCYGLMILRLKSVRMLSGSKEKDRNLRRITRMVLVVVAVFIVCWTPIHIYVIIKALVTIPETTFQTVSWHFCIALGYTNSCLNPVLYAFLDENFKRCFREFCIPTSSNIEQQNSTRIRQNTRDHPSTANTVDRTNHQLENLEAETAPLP
Protocol: as §1

[7] = molecular target: T1, 168 GPCRs (Homo sapiens, UniProt Q5NUL3)
T1 sequence (Q5NUL3 1-361): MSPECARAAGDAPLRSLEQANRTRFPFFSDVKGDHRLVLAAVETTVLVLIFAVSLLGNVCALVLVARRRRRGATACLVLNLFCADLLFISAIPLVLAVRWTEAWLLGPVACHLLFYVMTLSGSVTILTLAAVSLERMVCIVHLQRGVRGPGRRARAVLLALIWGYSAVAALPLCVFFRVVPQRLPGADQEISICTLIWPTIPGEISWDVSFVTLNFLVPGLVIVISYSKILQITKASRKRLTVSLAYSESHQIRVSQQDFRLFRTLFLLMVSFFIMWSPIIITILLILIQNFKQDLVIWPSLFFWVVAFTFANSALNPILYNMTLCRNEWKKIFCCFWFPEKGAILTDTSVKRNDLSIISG
Protocol: as §1

[8] = molecular target: 168 GPCRs (Homo sapiens, UniProt P41145)
Sequence of 168 GPCRs (Homo sapiens, UniProt P41145) (P41145 whole entry): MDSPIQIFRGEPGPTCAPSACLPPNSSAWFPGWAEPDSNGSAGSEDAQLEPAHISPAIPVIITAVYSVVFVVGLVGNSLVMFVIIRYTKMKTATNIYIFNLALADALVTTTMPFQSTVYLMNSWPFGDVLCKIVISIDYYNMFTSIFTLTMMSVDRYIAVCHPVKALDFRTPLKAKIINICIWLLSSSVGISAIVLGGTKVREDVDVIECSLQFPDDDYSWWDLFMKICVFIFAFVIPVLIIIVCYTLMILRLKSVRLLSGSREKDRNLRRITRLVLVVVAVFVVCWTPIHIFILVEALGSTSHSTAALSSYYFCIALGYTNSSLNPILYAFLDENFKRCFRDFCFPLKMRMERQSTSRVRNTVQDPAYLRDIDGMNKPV
Protocol: as §1

[9] = molecular target: 168 GPCRs (Homo sapiens, UniProt P47871); settings: GCGR
Sequence of 168 GPCRs (Homo sapiens, UniProt P47871) (P47871 26-477): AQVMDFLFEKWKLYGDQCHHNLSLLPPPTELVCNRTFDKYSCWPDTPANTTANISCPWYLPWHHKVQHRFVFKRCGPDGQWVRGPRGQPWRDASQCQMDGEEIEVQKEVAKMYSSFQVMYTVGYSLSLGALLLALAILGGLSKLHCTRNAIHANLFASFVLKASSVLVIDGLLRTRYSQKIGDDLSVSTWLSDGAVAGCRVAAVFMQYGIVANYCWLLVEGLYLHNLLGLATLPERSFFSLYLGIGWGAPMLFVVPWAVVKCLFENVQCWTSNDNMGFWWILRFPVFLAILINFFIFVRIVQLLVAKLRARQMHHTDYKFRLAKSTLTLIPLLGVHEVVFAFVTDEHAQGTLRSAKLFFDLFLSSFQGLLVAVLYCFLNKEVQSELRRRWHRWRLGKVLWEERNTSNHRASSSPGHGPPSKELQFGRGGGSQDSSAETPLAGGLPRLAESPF
Protocol: as §1

[10] = molecular target: 168 GPCRs (Homo sapiens, UniProt P25021)
Protocol: as §1

[11] = molecular target: 168 GPCRs (Homo sapiens, UniProt O43614)
Sequence of 168 GPCRs (Homo sapiens, UniProt O43614) (O43614 whole entry): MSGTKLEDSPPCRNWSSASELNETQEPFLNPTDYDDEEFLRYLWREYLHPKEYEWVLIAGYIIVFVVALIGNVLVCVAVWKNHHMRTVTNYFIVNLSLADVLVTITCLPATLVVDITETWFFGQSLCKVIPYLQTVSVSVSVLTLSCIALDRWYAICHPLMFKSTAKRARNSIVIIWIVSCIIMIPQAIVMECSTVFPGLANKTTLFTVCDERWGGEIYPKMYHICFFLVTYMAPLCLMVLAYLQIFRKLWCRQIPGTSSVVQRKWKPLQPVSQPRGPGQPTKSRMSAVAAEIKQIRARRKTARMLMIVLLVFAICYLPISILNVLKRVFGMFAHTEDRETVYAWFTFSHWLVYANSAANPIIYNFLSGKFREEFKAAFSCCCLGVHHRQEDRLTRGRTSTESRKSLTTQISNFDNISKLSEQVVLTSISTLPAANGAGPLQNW
Protocol: as §1

[12] = molecular target: 168 GPCRs (Homo sapiens, UniProt P55085)
Sequence of 168 GPCRs (Homo sapiens, UniProt P55085) (P55085 26-397): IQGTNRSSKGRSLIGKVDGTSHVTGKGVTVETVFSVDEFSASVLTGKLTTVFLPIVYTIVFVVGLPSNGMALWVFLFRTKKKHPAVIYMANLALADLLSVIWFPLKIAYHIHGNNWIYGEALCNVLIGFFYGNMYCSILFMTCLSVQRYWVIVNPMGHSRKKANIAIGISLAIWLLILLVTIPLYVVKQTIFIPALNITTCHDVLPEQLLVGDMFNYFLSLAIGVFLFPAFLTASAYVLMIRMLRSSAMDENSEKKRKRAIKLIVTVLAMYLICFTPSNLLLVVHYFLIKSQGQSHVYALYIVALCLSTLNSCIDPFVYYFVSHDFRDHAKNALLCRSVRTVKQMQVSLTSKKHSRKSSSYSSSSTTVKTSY
Protocol: as §1

[13] = molecular target: 168 GPCRs (Homo sapiens, UniProt P18825); settings: ADRA2C, Agonist
Sequence of 168 GPCRs (Homo sapiens, UniProt P18825) (P18825 whole entry): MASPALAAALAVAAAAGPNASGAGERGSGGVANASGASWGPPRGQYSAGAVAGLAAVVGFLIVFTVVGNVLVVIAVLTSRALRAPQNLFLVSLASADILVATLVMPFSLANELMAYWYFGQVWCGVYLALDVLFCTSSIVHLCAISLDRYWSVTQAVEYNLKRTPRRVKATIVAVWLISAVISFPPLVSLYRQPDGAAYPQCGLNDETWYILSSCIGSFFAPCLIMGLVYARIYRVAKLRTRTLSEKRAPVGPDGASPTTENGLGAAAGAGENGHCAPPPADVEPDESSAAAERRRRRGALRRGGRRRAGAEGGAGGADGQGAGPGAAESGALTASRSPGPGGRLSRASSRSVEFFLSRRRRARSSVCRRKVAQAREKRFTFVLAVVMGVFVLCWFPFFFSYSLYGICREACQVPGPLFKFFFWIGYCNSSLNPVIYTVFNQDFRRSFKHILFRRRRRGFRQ
Protocol: as §1

[14] = molecular target: 168 GPCRs (Homo sapiens, UniProt Q9H244)
Sequence of 168 GPCRs (Homo sapiens, UniProt Q9H244) (Q9H244 whole entry): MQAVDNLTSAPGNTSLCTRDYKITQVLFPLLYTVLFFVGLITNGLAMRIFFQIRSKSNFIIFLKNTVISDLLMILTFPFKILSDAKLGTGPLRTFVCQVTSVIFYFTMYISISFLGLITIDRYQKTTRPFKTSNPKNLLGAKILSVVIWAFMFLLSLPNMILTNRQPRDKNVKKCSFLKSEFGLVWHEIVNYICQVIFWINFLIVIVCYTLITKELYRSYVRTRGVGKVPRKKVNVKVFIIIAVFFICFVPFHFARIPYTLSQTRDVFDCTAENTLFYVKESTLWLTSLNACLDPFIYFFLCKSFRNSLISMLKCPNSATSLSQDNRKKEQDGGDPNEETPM
Protocol: as §1

[15] = molecular target: 168 GPCRs (Homo sapiens, UniProt P47872); settings: SCTR
Protocol: as §1

[16] = molecular target: 168 GPCRs (Homo sapiens, UniProt Q96G91)
Sequence of 168 GPCRs (Homo sapiens, UniProt Q96G91) (Q96G91 whole entry): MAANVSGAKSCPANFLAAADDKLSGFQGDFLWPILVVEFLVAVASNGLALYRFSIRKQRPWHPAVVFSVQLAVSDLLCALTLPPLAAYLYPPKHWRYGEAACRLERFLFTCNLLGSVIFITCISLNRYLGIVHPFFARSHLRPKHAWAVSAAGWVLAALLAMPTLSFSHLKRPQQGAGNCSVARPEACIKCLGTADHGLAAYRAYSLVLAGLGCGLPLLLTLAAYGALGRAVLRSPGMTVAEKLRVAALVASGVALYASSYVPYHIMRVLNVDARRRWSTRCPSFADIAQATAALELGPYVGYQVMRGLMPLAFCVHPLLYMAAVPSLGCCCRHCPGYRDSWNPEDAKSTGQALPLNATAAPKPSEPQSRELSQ
Protocol: as §1

[17] = molecular target: 168 GPCRs (Homo sapiens, UniProt O43613)
Protocol: as §1

[18] = molecular target: 168 GPCRs (Homo sapiens, UniProt P30988); settings: Agonist
Sequence of 168 GPCRs (Homo sapiens, UniProt P30988) (P30988 25-474): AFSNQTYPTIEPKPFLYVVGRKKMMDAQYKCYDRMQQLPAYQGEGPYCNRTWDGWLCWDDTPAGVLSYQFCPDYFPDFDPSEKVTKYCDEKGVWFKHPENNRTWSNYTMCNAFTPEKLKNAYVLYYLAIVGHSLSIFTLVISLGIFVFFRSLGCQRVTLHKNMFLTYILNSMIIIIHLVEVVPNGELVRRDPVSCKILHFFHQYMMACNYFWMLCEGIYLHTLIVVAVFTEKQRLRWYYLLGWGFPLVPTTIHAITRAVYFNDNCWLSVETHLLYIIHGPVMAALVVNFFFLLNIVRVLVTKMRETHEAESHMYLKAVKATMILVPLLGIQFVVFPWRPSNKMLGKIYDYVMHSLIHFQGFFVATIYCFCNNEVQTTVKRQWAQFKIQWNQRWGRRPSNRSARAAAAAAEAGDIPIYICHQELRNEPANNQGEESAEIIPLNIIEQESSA
Protocol: as §1

[19] = CALCR-RAMP2, read-out: % Activity

## CNC(C)C(=O)c1ccc2c(c1)OCO2 (stereo not shown) [methylone, 3,4-methylenedioxy-N-methylcathinone]
[1]; OPRD1, Agonist mode, 10 uM
  activity at 10 µM: -1.5%
[1]; OPRD1, Agonist, 1 uM
  activity at 1 µM: -2%
[2]; 1 uM
  activity at 1 µM: -1%
[2]; 10 uM
  activity at 10 µM: 1.3%
[3]; EDG3, Agonist mode, 10 uM
  activity at 10 µM: -8.6%
[3]; EDG3, Agonist, 1 uM
  activity at 1 µM: -9.4%
[4]; CXCR7, Agonist mode, 10 uM
  activity at 10 µM: -0.8%
[4]; CXCR7, Agonist, 1 uM
  activity at 1 µM: -1.3%
[5]; EDG4, Agonist mode, 10 uM
  activity at 10 µM: -2.1%
[5]; EDG4, Agonist, 1 uM
  activity at 1 µM: -2.2%
[6]; OPRM1, OPRM1, Agonist mode, 10 uM
  activity at 10 µM: 0.5%
[6]; OPRM1, OPRM1, Agonist, 1 uM
  activity at 1 µM: 0.2%
[7]; GPR120, Agonist mode, 10 uM
  activity at 10 µM: -5.8%
[7]; GPR120, Agonist, 1 uM
  activity at 1 µM: -5.1%
[8]; OPRK1, Agonist mode, 10 uM
  activity at 10 µM: -4.1%
[8]; OPRK1, Agonist, 1 uM
  activity at 1 µM: -6.3%
[9]; Agonist mode, 10 uM
  activity at 10 µM: -3%
[9]; Agonist, 1 uM
  activity at 1 µM: -2.3%
[10]; HRH2, Agonist mode, 10 uM
  activity at 10 µM: 2.8%
[10]; HRH2, Agonist, 1 uM
  activity at 1 µM: -2.5%
[11]; HCRTR2, Agonist mode, 10 uM
  activity at 10 µM: 0.2%
[11]; HCRTR2, Agonist, 1 uM
  activity at 1 µM: 0.2%
[12]; F2RL1, Agonist mode, 10 uM
  activity at 10 µM: 3.8%
[12]; F2RL1, Agonist, 1 uM
  activity at 1 µM: -0.6%
[13]; 1 uM
  activity at 1 µM: -2.5%
[13]; 10 uM
  activity at 10 µM: 0.1%
[14]; P2RY12, Agonist mode, 10 uM
  activity at 10 µM: -2.5%
[14]; P2RY12, Agonist, 1 uM
  activity at 1 µM: -1.5%
[15]; Agonist mode, 10 uM
  activity at 10 µM: -1.4%
[15]; Agonist, 1 uM
  activity at 1 µM: -2.6%
[16]; P2RY11, Agonist mode, 10 uM
  activity at 10 µM: -0.3%
[16]; P2RY11, Agonist, 1 uM
  activity at 1 µM: 0.5%
[17]; HCRTR1, Agonist mode, 10 uM
  activity at 10 µM: -0.1%
[17]; HCRTR1, Agonist, 1 uM
  activity at 1 µM: -0.1%
[18]; [19]
  activity at 1 µM: 0.9%
  activity at 10 µM: 1.6%
[18]; CALCR-RAMP3
  activity at 1 µM: 7.9%
  activity at 10 µM: 7.1%
[18]; CALCR, read-out: % Activity
  activity at 1 µM: -0.3%
  activity at 10 µM: 0.2%
